{
  "source": "patent US8481481B2",
  "about": "“Peptides and their use as carriers into cancer cells” (Advanced Accelerator Applications S.A., priority 2008, dated 2013)",
  "molecules": {"B1": {"name": "LSA-type-MnSOD: manganese superoxide dismutase secreted by a liposarcoma cell line, 30 kDa (protein, UniProt P04179 25-222, looked up)", "Superoxide dismutase [Mn], …": "KHSLPDLPYDYGALEPHINAQIMQLHHSKHHAAYVNNLNVTEEKYQEALAKGDVTAQIALQPALKFNGGGHINHSIFWTNLSPNGGGEPKGELLEAIKRDFGSFDKFKEKLTAASVGVQGSGWGWLGFNKERGHLQIAACPNQDPLQGTTGLIPLLGIDVWEHAYYLQYKNVRPDYLKAIWNVINWENVTERYMACKK"}, "B2": {"name": "rMnSOD: recombinant form of LSA-type-MnSOD produced by specific cDNA clones (protein, UniProt P04179 25-222, looked up)", "Superoxide dismutase [Mn], …": "KHSLPDLPYDYGALEPHINAQIMQLHHSKHHAAYVNNLNVTEEKYQEALAKGDVTAQIALQPALKFNGGGHINHSIFWTNLSPNGGGEPKGELLEAIKRDFGSFDKFKEKLTAASVGVQGSGWGWLGFNKERGHLQIAACPNQDPLQGTTGLIPLLGIDVWEHAYYLQYKNVRPDYLKAIWNVINWENVTERYMACKK"}},
  "key": {"[1]": {"tested_on": "tumour cell lines (MCF7, M1735, MRC5 and A2780)", "experiment": "Immunocytochemistry with anti-leader peptide antibody on treated cell lines (FIG. 1)", "assay_type": "cell-based, human", "details": "immunohistochemical reaction, three hours of incubation", "experimental": "The target cells (MCF-7) in continuous culture, derived from a mammary tumour of human origin, were incubated for three hours in the presence or absence of: (a) 24-amino acid leader peptide of rMnSOD-Lp-CC not conjugated to any other molecules, (b) 24-amino acid leader peptide conjugated to cisplatin.\nAfter incubation, the cells were fixed with Zamboni fixative (solution composed of 4% paraformaldehyde+15% picric acid) for 60 minutes and washed with PBS. The cells were then maintained in PBS containing 0.3% hydrogen peroxide, with the aim of blocking endogenous peroxidases. The polyclonal antibody (anti-leader peptide of rMnSOD obtained from rabbit), diluted 1/200 was then added to the cells and left for 1 hour at ambient temperature. To develop the reaction, a DAKO SLAB Peroxidase K0679 kit was used."}, "MCF-7 cells": {"tested_on": "MCF-7 cells", "experiment": "Quantitative determination by atomic absorption of cisplatin transported into tumour cells", "assay_type": "cell-based, human", "experimental": "The target cells MCF-7 were trypsinized, washed twice with buffered solution (PBS) and treated with 50 μl of 35% HNO3 for 16 hours. The platin content was determined by subjecting the samples to atomic absorption with an Analyst 800 instrument, by Perkin-Elmer, Norwalk, Conn., USA, using the following parameters: pre-treatment temperature, 1300° C.; atomization temperature, 2200° C.; using as the matrix modifier a composition of 0.015 mg of […] with 0.01 mg of Mg(NO3)2. The measurements were performed using the “Zeeman-effect background” correction system with Pyrolytic graphite-coated THGA tube (Perkin Elmer) and an integrated Lvov-type platform was used for metal determination. As standard solution we used a 2.5% HNO3 solution (Spectrascan) to obtain three reference points on the calibration curve."}, "Bax gene, normal cells": {"tested_on": "Bax gene, normal cells", "experiment": "Bax gene expression in normal cells (FIG. 2)", "assay_type": "cell-based", "from_the_text": "FIG. 2 confirms the apoptotic action of the rMnSOD-Lp-CC complex on various cell lines.\nIn the experiment, actin cDNA was inserted as control of quantitative DNA expression; to note that again in this case (a) indicates untreated cells, (b) indicates cells treated with the leader peptide of rMnSOD (b), and (c) indicates cells treated with the leader peptide conjugated to cisplatin."}, "tumour cells": {"tested_on": "tumour cells", "details": "recent study, state of the art; cited from earlier work"}},
  "note": "Peptide text beside a SMILES is read from it. * marks the point of attachment. X1 = O=C(C[NH+]1CC[NH2+][Pt-2]1([Cl])[Cl])*",
  "data": [
    {"molecule": "MLSRAVCGTSRQLAPALGYLGSRQ [leader peptide of rMnSOD]", "values": [
      {"measurement": "penetration into tumour cells / cell damage", "setting": "[1]", "value": "penetrated tumour cells without damaging the cells"},
      {"measurement": "quantity of cisplatin transported into cells relative to cisplatin alone", "setting": "MCF-7 cells; tumour cells, Table 1", "value": "double"}
    ]},
    {"molecule": "N.N.[Cl][Pt][Cl]", "note": "[Cisplatin, cisplatin]", "values": [
      {"measurement": "quantity of Pt, MCF-7 Pellet", "setting": "MCF-7 cells; MCF-7 Pellet, atomic absorption", "value": 2.3, "unit": "ng-Pt ng Pt"},
      {"measurement": "quantity of cisplatin, MCF-7 Solution", "setting": "MCF-7 cells; MCF-7 Solution, atomic absorption", "value": "Cisplatin 8.7 μg/l"},
      {"measurement": "quantity of Pt, MCF-7 Solution", "setting": "MCF-7 cells; MCF-7 Solution, atomic absorption, value in brackets", "value": "(3.5 μg Pt)"}
    ]},
    {"molecule": "CSCC[C@H](NC(=O)C[NH+]1CC[NH2+][Pt-2]1([Cl])[Cl])C(=O)N[C@@H](CC(C)C)C(=O)N[C@@H](CO)C(=O)N[C@@H](CCCNC(=N)N)C(=O)N[C@@H](C)C(=O)N[C@H](C(=O)N[C@@H](CS)C(=O)NCC(=O)N[C@H](C(=O)N[C@@H](CO)C(=O)N[C@@H](CCCNC(=N)N)C(=O)N[C@@H](CCC(N)=O)C(=O)N[C@@H](CC(C)C)C(=O)N[C@@H](C)C(=O)N1CCC[C@H]1C(=O)N[C@@H](C)C(=O)N[C@@H](CC(C)C)C(=O)NCC(=O)N[C@@H](Cc1ccc(O)cc1)C(=O)N[C@@H](CC(C)C)C(=O)NCC(=O)N[C@@H](CO)C(=O)N[C@@H](CCCNC(=N)N)C(=O)N[C@@H](CCC(N)=O)C(=O)O)[C@@H](C)O)C(C)C", "note": "(some centres unmarked) [rMnSOD-Lp-CC] (X1-MLSRAVCGTSRQLAPALGYLGSRQ-OH)", "values": [
      {"measurement": "toxic reaction / Bax gene expression", "setting": "Bax gene, normal cells", "value": "does not induce any toxic reaction"}
    ]},
    {"molecule": "B1", "values": [
      {"measurement": "cytotoxicity to tumour cells", "setting": "tumour cells", "value": "cytotoxic specifically and selectively to tumour cells"}
    ]},
    {"molecule": "B2", "values": [
      {"measurement": "cytotoxicity to tumour cells", "setting": "tumour cells", "value": "retain the structural and oncotoxic properties of the native protein"}
    ]}
  ]
}
